Experimental data from patent publication US9700545B2 (Salix Pharmaceuticals, Ltd, priority 2008, dated 2017).

Columns and labels:
Assay type in all cases: physicochemical
[1] = Automated moisture sorption/desorption (MB / DVS); details: for XRPD following DVS: line after DVS; for hygroscopicity: result in words; for form by XRPD after moisture sorption/desorption: sorption from 5% RH to 95% RH, desorption from 95% RH to 5% RH
Protocol: Based on the data, relative humidity stressing studies of the two amorphous materials at 40° C./75% RH are recommended. Moisture sorption/desorption data were collected on a VTI SGA-100 Vapor Sorption Analyzer. Sorption and desorption data were collected over a range of 5% to 95% relative humidity (RH) at 10% RH intervals under a nitrogen purge. Samples were not dried prior to analysis. Equilibrium criteria used for analysis were less than 0.0100% weight change in 5 minutes, with a maximum equilibration time of 3 hours if the weight criterion was not met. Data were not corrected for the initial moisture content of the samples. NaCl and PVP were used as calibration standards.

[2] = Vapor stress / vapor diffusion stressing of amorphous materials, form by XRPD; details: methanol and tetrahydrofuran, both with water as antisolvent
Protocol: (§1) Vapor stressing experiments were done on amorphous material from two preparations: lyophilization from p-dioxane:water 1:1 and crash precipitation from ethyl acetate with heptane. […] The majority of the stressed samples appeared as clear red solutions after 6 days. Those solutions were placed in vials of antisolvent for vapor diffusion. Dry and wet milling experiments were conducted on amorphous materials from the two preparations mentioned above. Amorphous materials were recovered from the dry milling experiments.

[3] = Milling experiments on amorphous materials, form by XRPD; details: 10 min. at 30 Hz, scraped sides
Protocol: as §1
A solid sample of rifaximin was charged to a milling container with a milling ball. […] Solids were scraped from the sides of the vial after each interval.

SMILES | wt loss upon equilibration at 5% RH ([1]; MB, Table 5, milled amorphous) | XRPD following DVS ([1]; Table 2, first sample block (lyophilization sample)) | XRPD following DVS ([1]; Table 2, second sample block (crash precipitation sample)) | weight gain under 95% RH ([1]; amorphous rifaximin made by milling, moisture balance) [%] | hygroscopicity [1] | form by XRPD after moisture sorption/desorption [1] | form by XRPD after moisture sorption/desorption ([1]; listed as Amorphous) | form by XRPD after moisture sorption/desorption ([1]; listed as Rifaximin Amorphous) | form obtained in vapor diffusion experiments [2] | XRPD Result after dry milling [3]
CO[C@H]1/C=C/O[C@@]2(C)Oc3c(C)c(O)c4c(O)c(c5c(nc6cc(C)ccn65)c4c3C2=O)NC(=O)/C(C)=C\C=C\[C@H](C)[C@H](O)[C@@H](C)[C@@H](O)[C@@H](C)[C@H](OC(C)=O)[C@@H]1C [Amorphous rifaximin] | 0.7% wt loss upon equilibration | no peaks, possibly amorphous | no peaks, possibly amorphous | 11.6 | hygroscopic | amorphous | amorphous | amorphous | Form β | 
CO[C@H]1/C=C/O[C@@]2(C)Oc3c(C)c(O)c4c(O)c(c5c(nc6cc(C)ccn65)c4c3C2=O)NC(=O)/C(C)=C\C=C\[C@H](C)[C@H](O)[C@@H](C)[C@@H](O)[C@@H](C)[C@H](OC(C)=O)[C@@H]1C [crash amorphous rifaximin] |  |  |  |  | moderately hygroscopic | Crystallization was not observed |  |  |  | amorphous
CO[C@H]1/C=C/O[C@@]2(C)Oc3c(C)c(O)c4c(O)c(c5c(nc6cc(C)ccn65)c4c3C2=O)NC(=O)/C(C)=C\C=C\[C@H](C)[C@H](O)[C@@H](C)[C@@H](O)[C@@H](C)[C@H](OC(C)=O)[C@@H]1C [lyophilized amorphous rifaximin] |  |  |  |  | moderately hygroscopic | Crystallization was not observed |  |  |  | amorphous
CO[C@H]1/C=C/O[C@@]2(C)Oc3c(C)c(O)c4c(O)c(c5c(nc6cc(C)ccn65)c4c3C2=O)NC(=O)/C(C)=C\C=C\[C@H](C)[C@H](O)[C@@H](C)[C@@H](O)[C@@H](C)[C@H](OC(C)=O)[C@@H]1C [α dry] |  |  |  |  |  | α dry |  |  |  | 
